From patent EP0166726B1, “10-ETHYL-8,10-DIDEAZAMINOPTERINS” (SRI INTERNATIONAL, priority 1983, dated 1985) come the findings set out here.

This data set concerns L-1210 leukemia cells. As to the kind of experiment: L-1210 murine leukemia assay (increase in median life span). In kind it is in vivo, Mice. Conditions: for ILS%: increase in median life span vs untreated controls, at LD10 dose, 5 injections every other day starting one day after transplantation of 10^6 tumor cells/mouse; for LD10 Dose: mice, injected once per day every other day, total of 5 injections; for Cells Remaining: number of neoplastic cells remaining after treatment at LD10 dose, 10^6 tumor cells/mouse transplanted. The protocol:
This is a standard assay that is used to evaluate the efficacy of compounds as antineoplastic agents for treating humans. The assay is described by D. J. Hitchinson, D. C. Robinson, D. Martin, O. L. Ittenson and Dillenberg, Journal Cancer Research, (1962) 22:57-72. It is a procedure for evaluating a compound for increase in median life span in treated animals and unteated controls both infected with L-1210 leukemia cells. […] Mice are injected once per day every other day for a total of 5 injections starting one day after transplantation of 10^6 tumor cells/mouse. The results of this assay with several, 8,10-dideazaminopterin analogs were as follows:
It is apparent from the above results that the life spans of the mice were increased considerably by administration of the invention compound and that this compound has surprising activity when compared to the non-alkylated and n-propyl or methyl analogs. The % ILS data represent comparisons of log values, and thus differences in the % ILS which appear minor mask large differences in cytotoxic activity. Thus, as shown, the ethyl derivative is 40 times as effective as the unsubstituted compound and 100 times as effective as the n-propyl derivative in terms of reducing the number of neoplastic cells; i.e., e.g., the number of cells remaining after 10-ethyl analog treatment is only 1/40 and 1/100 of that remaining from treatment with the above analogs, respectively. The assay and these conclusions are described by Schabel, F. M., Symposium on Proliferation and Spread of Neoplastic Cells, M. D. Anderson, Tumor Institute, Houston, Texas (1968), p. 379 ff.

Take 10-Methyl-8,10-dideazaminopterin: the ILS% result is given as “+203%”, the “LD10 Dose” value amounted to 0.6 Mg/Kg and the “Cells Remaining” value is recorded as 1000.
With “10-Propyl-8,10-dideazaminopterin [10-n-propyl-8,10-dideazaminopterin]”, the ILS% entry is “+176%”, the “LD10 Dose” value came to 6.0 Mg/Kg and the “Cells Remaining” value is recorded as 10,000.
For 10-ethyl-8,10-dideazaminopterin, the ILS% result was “+235%”, the “LD10 Dose” value is 1.5 Mg/Kg and the “Cells Remaining” value is on record as 100. Moreover, the “times as effective as the unsubstituted compound in terms of reducing the number of neoplastic cells” value (relative to 8,10-dideazaminopterin, ratio of cells remaining) came to 40 times. Besides, the “times as effective as the n-propyl derivative in terms of reducing the number of neoplastic cells” value (relative to 10-n-propyl-8,10-dideazaminopterin, ratio of cells remaining) is given as 100 times.
As to `Nc1nc(N)c2nc(CCc3ccc(C(=O)N[C@@H](CCC(=O)O)C(=O)O)cc3)ccc2n1` [8,10-dideazaminopterin], the ILS% result was “+189%”, the “LD10 Dose” value turned out to be 0.75 Mg/Kg and the “Cells Remaining” value was 4000.
For `CN(Cc1cnc2nc(N)nc(N)c2n1)c1ccc(C(=O)N[C@@H](CCC(=O)O)C(=O)O)cc1` [Methotrexate], the ILS% result is “+187%” and the “LD10 Dose” value worked out at 15 Mg/Kg.
